Results published in patent US8354539B2, “Indole derivatives as IKK2 inhibitors” (Glaxo Group Limited, priority 2009, dated 2013).

Tested on: polychromatic erythrocytes from rat bone marrow
Assay: Bone marrow micronucleus assay in rats
Details: 20 mg/kg/day oral, once only, male rats, positive control
Protocol: The objective of this study was to assess the potential of 5-[2-(1-methylethyl)-2,3-dihydro-1H-isoindol-5-yl]-3-(1-{[2-(methyloxy)ethyl]sulfonyl}-4-piperidinyl)-1H-indole-7-carboxamide in induce structural chromosomal damage and/or aneuploidy in vivo, in polychromatic erythrocytes from rat bone marrow, when administered to rats for two consecutive days.
Crl: CD(SD) rats were used in this study.
Doses of 500, 1000, 2000 mg/kg/day of 5-[2-(1-methylethyl)-2,3-dihydro-1H-isoindol-5-yl]-3-(1-{[2-(methyloxy)ethyl]sulfonyl}-4-piperidinyl)-1H-indole-7-carboxamide, or vehicle (0.5% (w/v) aqueous hydroxypropylmethylcellulose containing 0.1% (w/v) Tween 80), were given orally (by gavage) to groups of 3 male and 3 female rats. […]
Doses of 1000 or 2000 mg/kg/day—5-[2-(1-methylethyl)-2,3-dihydro-1H-isoindol-5-yl]-3-(1-{[2-(methyloxy)ethyl]sulfonyl}-4-piperidinyl)-1H-indole-7-carboxamide or vehicle (0.5% (w/v) aqueous hydroxypropylmethylcellulose containing 0.1% (w/v) Tween 80) were given orally, by gavage, on two consecutive days to groups of 6 male rats. […] Smears were stained with acridine orange prior to analysis with fluorescense microscopy to determine the proportion of polychromatic erythrocytes in the total erythrocyte count (% PCE) and the number of micronucleated polychromatic erythrocytes (MPCE) per 2000 PCE analysed.

**Q.** Which “Group Mean % PCE” value does the source give for `O=P1(N(CCCl)CCCl)NCCCO1` (centres unmarked) [Cyclophosphamide, cyclophosphamide] here?
**A.** 46%

**Q.** What about the “Group Mean MPCE” value of the same compound?
**A.** 51.87 per 2000 PCE analysed
